Test results as given in the supplement of paper PMC4862054.

Key:
Details in all cases: incubation time: 72 h
BT-474 [1] = assay: normalised response (% of control), CellTox Green; higher = less cell death (100 = DMSO, 0 = benzethonium chloride kill control)
How it was run: (§1)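 Each entry is the normalised signal at a single concentration within a series. The series comprised 5 concentrations in 10-fold steps over a compound-specific 10,000-fold range, placed in 384-well plates into which breast cancer cell lines were seeded as 20 µl suspension and incubated 72 h. CellTox Green (485/520 nm) fluorescence and then CellTiter-Glo luminescence were read, with signals normalised per plate to 0.1 % DMSO (100) and a positive kill control (0).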

BT-549 [2] = assay: as above
How it was run: as §1

CAL-120 [3] = assay: as above
How it was run: as §1

CAL-148 [4] = assay: as above
How it was run: as §1

CAL-51 [5] = assay: as above
How it was run: as §1

CAL-85-1 [6] = assay: as above
How it was run: as §1

DU-4475 [7] = assay: as above
How it was run: as §1

HCC1143 [8] = assay: as above
How it was run: as §1

HCC1599 [9] = assay: as above
How it was run: as §1

HCC1937 [10] = assay: as above
How it was run: as §1

HDQ-P1 [11] = assay: as above
How it was run: as §1

Hs578T [12] = assay: as above
How it was run: as §1

MCF-10A [13] = assay: as above
How it was run: as §1

MDA-MB-231 [14] = assay: as above
How it was run: as §1

MDA-MB-436 [15] = assay: as above
How it was run: as §1

MDA-MB-453 [16] = assay: as above
How it was run: as §1

MDA-MB-468 [17] = assay: as above
How it was run: as §1

MFM-223 [18] = assay: as above
How it was run: as §1

BT-474 [19] = assay: normalised response (% of control), CellTiter-Glo; higher = more viable cells (100 = DMSO, 0 = benzethonium chloride kill control)
Description: (§2)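 DSRT, 72 h incubation, CellTox Green / CellTiter-Glo readout. Signal is normalised to DMSO and benzethonium chloride controls. Value is the normalised response at dose 3.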

BT-549 [20] = assay: as above
Description: as §2

CAL-120 [21] = assay: as above
Description: as §2

CAL-148 [22] = assay: as above
Description: as §2

CAL-51 [23] = assay: as above
Description: as §2

CAL-85-1 [24] = assay: as above
Description: as §2

DU-4475 [25] = assay: as above
Description: as §2

HCC1143 [26] = assay: as above
Description: as §2

HCC1599 [27] = assay: as above
Description: as §2

HCC1937 [28] = assay: as above
Description: as §2

HDQ-P1 [29] = assay: as above
Description: as §2

MCF-10A [30] = assay: as above
Description: as §2

MDA-MB-231 [31] = assay: as above
Description: as §2

MDA-MB-436 [32] = assay: as above
Description: as §2

MDA-MB-453 [33] = assay: as above
Description: as §2

MDA-MB-468 [34] = assay: as above
Description: as §2

MFM-223 [35] = assay: as above
Description: as §2

SK-BR-3 [36] = assay: as above
Description: as §2

BT-474 [37] = assay: as above; remark: listed apart in the source
Description: (§3)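 DSRT, 72 h incubation, CellTox Green / CellTiter-Glo readout. Signal is normalised to DMSO and benzethonium chloride controls. Value is the normalised response at the highest dose.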

BT-549 [38] = assay: as above; remark: listed apart in the source
Description: as §3

CAL-120 [39] = assay: as above; remark: listed apart in the source
Description: as §3

CAL-148 [40] = assay: as above; remark: listed apart in the source
Description: as §3

CAL-51 [41] = assay: as above; remark: listed apart in the source
Description: as §3

CAL-85-1 [42] = assay: as above; remark: listed apart in the source
Description: as §3

DU-4475 [43] = assay: as above; remark: listed apart in the source
Description: as §3

HCC1143 [44] = assay: as above; remark: listed apart in the source
Description: as §3

HCC1599 [45] = assay: as above; remark: listed apart in the source
Description: as §3

HCC1937 [46] = assay: as above; remark: listed apart in the source
Description: as §3

HDQ-P1 [47] = assay: as above; remark: listed apart in the source
Description: as §3

Hs578T [48] = assay: as above
Description: as §3

MCF-10A [49] = assay: as above; remark: listed apart in the source
Description: as §3

MDA-MB-231 [50] = assay: as above; remark: listed apart in the source
Description: as §3

MDA-MB-436 [51] = assay: as above; remark: listed apart in the source
Description: as §3

MDA-MB-453 [52] = assay: as above; remark: listed apart in the source
Description: as §3

MDA-MB-468 [53] = assay: as above; remark: listed apart in the source
Description: as §3

MFM-223 [54] = assay: as above; remark: listed apart in the source
Description: as §3

SK-BR-3 [55] = assay: as above; remark: listed apart in the source
Description: as §3

Row | SMILES | normalised response (BT-474 [1]) | normalised response (BT-549 [2]) | normalised response (CAL-120 [3]) | normalised response (CAL-148 [4]) | normalised response (CAL-51 [5]) | normalised response (CAL-85-1 [6]) | normalised response (DU-4475 [7]) | normalised response (HCC1143 [8]) | normalised response (HCC1599 [9]) | normalised response (HDQ-P1 [11]) | normalised response (Hs578T [12]) | normalised response (MCF-10A [13]) | normalised response (MDA-MB-231 [14]) | normalised response (MDA-MB-453 [16]) | normalised response (MDA-MB-468 [17]) | normalised response (MFM-223 [18]) | normalised response (BT-474 [37]) | normalised response (BT-549 [38]) | normalised response (CAL-120 [39]) | normalised response (CAL-148 [40]) | other results
1 | Cn1c(=O)n(-c2ccc(C(C)(C)C#N)cc2)c2c3cc(-c4cnc5ccccc5c4)ccc3ncc21 [Dactolisib] (10 nM) | 101% | 110% | 98.7% | 103% | 113% | 101% | 104% | 55.5% | 115% | 116% | 116% | 108% | 120% | 108% | 130% | 104% | – | – | – | – | normalised response (HCC1937 [10]): 122%; normalised response (MDA-MB-436 [15]): 102%; normalised response (BT-474 [19]): 80.5%; normalised response (BT-549 [20]): 61.5%; normalised response (CAL-120 [21]): 62.1%; normalised response (CAL-148 [22]): 88.5%; normalised response (CAL-51 [23]): 68.4%; normalised response (CAL-85-1 [24]): 62.9%; normalised response (DU-4475 [25]): 96.3%; normalised response (HCC1143 [26]): 78%; normalised response (HCC1599 [27]): 97.5%; normalised response (HCC1937 [28]): 85.5%; normalised response (HDQ-P1 [29]): 80.1%; normalised response (MCF-10A [30]): 99.8%; normalised response (MDA-MB-231 [31]): 80.3%; normalised response (MDA-MB-436 [32]): 65.9%; normalised response (MDA-MB-453 [33]): 75.9%; normalised response (MDA-MB-468 [34]): 84.3%; normalised response (MFM-223 [35]): 83.8%; normalised response (SK-BR-3 [36]): 73.6%
2 | Cc1ccc(NC(=O)c2ccc(CN3CCN(C)CC3)cc2)cc1Nc1nccc(-c2cccnc2)n1 [Imatinib] (10000 nM) | 96.6% | 92.7% | 101% | 103% | 93.1% | 84.2% | 97.9% | 91.2% | 94.8% | 74.4% | 76.1% | 65.1% | 114% | -13.7% | 113% | 99.9% | 87.4% | 89.5% | 108% | 116% | normalised response (MDA-MB-436 [15]): 87.4%; normalised response (CAL-51 [41]): 76.5%; normalised response (CAL-85-1 [42]): 85.7%; normalised response (DU-4475 [43]): 107%; normalised response (HCC1143 [44]): 91.3%; normalised response (HCC1599 [45]): 71.6%; normalised response (HCC1937 [46]): 83.6%; normalised response (HDQ-P1 [47]): 111%; normalised response (Hs578T [48]): 98.3%; normalised response (MCF-10A [49]): 128%; normalised response (MDA-MB-231 [50]): 94.8%; normalised response (MDA-MB-436 [51]): 94.3%; normalised response (MDA-MB-453 [52]): 73.4%; normalised response (MDA-MB-468 [53]): 86.8%; normalised response (MFM-223 [54]): 87.7%; normalised response (SK-BR-3 [55]): 84.7%
3 | c1ccc([C@H]2CN3CCSC3=N2)cc1 [Levamisole] (10000 nM) | 101% | 95.8% | 98.4% | 53.5% | 113% | 79.1% | 104% | 106% | 92.5% | 72.4% | 72% | 67.3% | – | 71.4% | 110% | 95.2% | 102% | 96.5% | 112% | 106% | normalised response (HCC1937 [10]): 82.5%; normalised response (CAL-51 [41]): 119%; normalised response (CAL-85-1 [42]): 94%; normalised response (DU-4475 [43]): 98.9%; normalised response (HCC1143 [44]): 99.3%; normalised response (HCC1599 [45]): 114%; normalised response (HCC1937 [46]): 100%; normalised response (HDQ-P1 [47]): 104%; normalised response (Hs578T [48]): 100%; normalised response (MCF-10A [49]): 110%; normalised response (MDA-MB-231 [50]): 104%; normalised response (MDA-MB-436 [51]): 108%; normalised response (MDA-MB-453 [52]): 106%; normalised response (MDA-MB-468 [53]): 104%; normalised response (MFM-223 [54]): 108%; normalised response (SK-BR-3 [55]): 110%
4 | CNNCc1ccc(C(=O)NC(C)C)cc1 [Procarbazine] (10000 nM) | 103% | 94% | 111% | 93% | 110% | 72% | 96.2% | 115% | 98.3% | 99.9% | 108% | 115% | 99% | 60.5% | – | 94.5% | 98% | 101% | 106% | 107% | normalised response (MDA-MB-436 [15]): 81.7%; normalised response (CAL-51 [41]): 96.3%; normalised response (CAL-85-1 [42]): 99.3%; normalised response (DU-4475 [43]): 102%; normalised response (HCC1143 [44]): 113%; normalised response (HCC1599 [45]): 96.8%; normalised response (HCC1937 [46]): 103%; normalised response (HDQ-P1 [47]): 104%; normalised response (Hs578T [48]): 105%; normalised response (MCF-10A [49]): 109%; normalised response (MDA-MB-231 [50]): 103%; normalised response (MDA-MB-436 [51]): 103%; normalised response (MDA-MB-453 [52]): 102%; normalised response (MDA-MB-468 [53]): 99.4%; normalised response (MFM-223 [54]): 108%; normalised response (SK-BR-3 [55]): 109%
5 | CN1CCN(CCOc2cc(OC3CCOCC3)c3c(Nc4c(Cl)ccc5c4OCO5)ncnc3c2)CC1 [Saracatinib] (10000 nM) | 42% | 86.2% | 94.5% | 68.4% | 58% | 29.9% | 95.5% | 96.4% | 76.6% | 68.9% | 59.7% | 87.1% | 51.3% | 79% | 125% | 90.4% | 55% | 57.8% | 66.3% | 75.2% | normalised response (HCC1937 [10]): 81.7%; normalised response (CAL-51 [41]): 59.8%; normalised response (CAL-85-1 [42]): 27.9%; normalised response (DU-4475 [43]): 106%; normalised response (HCC1143 [44]): 67.1%; normalised response (HCC1599 [45]): 19.4%; normalised response (HCC1937 [46]): 56%; normalised response (HDQ-P1 [47]): 34.6%; normalised response (Hs578T [48]): 64.8%; normalised response (MCF-10A [49]): 21.4%; normalised response (MDA-MB-231 [50]): 47.5%; normalised response (MDA-MB-436 [51]): 83%; normalised response (MDA-MB-453 [52]): 63.1%; normalised response (MDA-MB-468 [53]): 67.5%; normalised response (MFM-223 [54]): 64.9%; normalised response (SK-BR-3 [55]): 46.9%
